Reference: patent US10323001B2, “Compositions for modulating a kinase cascade and methods of use thereof” (Athenex, Inc., priority 2006, dated 2019)
Structures can show the parent of a compound that is named as a salt. Where two headings read alike, the source gives them in different places.

Legend:
Format in all cases: physicochemical
[1] = Moisture-sorption analysis (Hiden IGAsorp); settings: for Moisture Sorption Wt % Water @ 90% RH: mesylate
Procedure: Moisture-sorption experiments were performed using a Hiden IGAsorp Moisture Sorption instrument on KX2-391.MSA obtained in accordance with the process of the present invention (Example 4). First, the sample was dried at 0% Relative Humidity (RH) and 25° C. until an equilibrium weight was reached or for a maximum of four hours. The sample was then subjected to an isothermal (25° C.) adsorption scan from 10 to 90% RH in steps of 10%. The sample was allowed to equilibrate to an asymptotic weight at each point for a maximum of four hours. Following adsorption, a desorption scan from 85 to 0% RH (at 25° C.) was run in steps of −10% again allowing a maximum of four hours for equilibration to an asymptotic weight. The sample was then dried for one hour at 80° C. and the resulting solid analyzed by XRPD. […] FIG. 10 depicts percent change of water content as a function of relative humidity for KX2-391.MSA, Form A.
Moisture-sorption experiments were performed using a Hiden IGAsorp Moisture Sorption Instrument on KX2-391.2HCl obtained in accordance with the process of the present invention (Example 3). First, the sample was dried at 0% Relative Humidity (RH) and 25° C. until an equilibrium weight was reached or for a maximum of four hours. The sample was then subjected to an isothermal (25° C.) adsorption scan from 10 to 90% RH in steps of 10%. The sample was allowed to equilibrate to an asymptotic weight at each point for a maximum of four hours. Following adsorption, a desorption scan from 85 to 0% RH (at 25° C.) was run in steps of −10% again allowing a maximum of four hours for equilibration to an asymptotic weight. The sample was then dried for one hour at 80° C. and the resulting solid analyzed by XRPD.

[2] = Solubility in DI water and pH 2.0 phosphate buffer
Procedure: The table below summarizes additional characterization data for the fumaric and maleate KX2-391.MSA salts and compares it to free base, bis-HCl, and MSA salts described above. The results in the table below were obtained using the procedures described above in Examples 5 (XRPD), 6 (DSC), 7 (TGA), and 8 (moisture-sorption).
Solubility experiments were also performed using pH 2.0 phosphate buffer and DI water pH 6.9 and KX2-391.MSA, Form A. Each vial was filled with approximately 50 mg of KX2-391.MSA, Form A and 100 μL aliquots of the corresponding solvent was added until complete dissolution was observed, followed by stirring at room temperature for one and five days. The solids obtained were isolated by filtration, dried under vacuum at room temperature and analyzed by HPLC. The initial HPLC purity of KX2-391.MSA, Form A was 99.4 (% area). The solubility by HPLC of KX2-391.MSA, Form A in phosphate buffer/RT was >500 mg/mL and HPLC purity was measured to be 99.4. The solubility by HPLC of KX2-391.MSA, Form A in DI H2O/RT was >500 mg/mL and HPLC purity was measured to be 99.4.

Thermal stress = settings: 60° C., one week
Procedure: Thermal stress experiments were performed on KX2-391.MSA, Form A. Each 1-dram amber vial was filled with approximately 20 mg of KX2-391.MSA, Form A capped and stored in a vacuum over at 60° C. for one week. The resulting solids were analyzed by XRPD and HPLC.

In the case of `O=C(Cc1ccc(-c2ccc(OCCN3CCOCC3)cc2)cn1)NCc1ccccc1` [KX2-391.MSA, 2-(5-(4-(2-morpholinoethoxy)phenyl)pyridine-2-yl)-N-benzylacetamide mesylate], the “hygroscopicity by moisture sorption analysis” value ([1]; 25° C., adsorption scan 10 to 90% RH) is reported as “slightly-hygroscopic”, the “water absorbed at 60% RH” value ([1]; 60% RH, 25° C.) is reported as 1.1 wt % and the “Moisture Sorption Wt % Water @ 90% RH” value ([1]; 25° C., listed as MSA) is reported as 5.7 wt %. For the same compound, the “Moisture Sorption Wt % Water @ 90% RH” value ([1]; 25° C.) was 5.7 wt %, the “XRPD pattern of material resulting from the moisture sorption experiment” value ([1]; after adsorption/desorption scans and drying one hour at 80° C.) was “consistent with the starting form” and the “pH of solubility sample” value [2] was 4.6. The “HPLC purity after solubility experiment” value ([2]; pH 2) was 99.4 % area, the “Solubility mg/mL” value ([2]; pH 2) was “pH 2: >500 mg/mL” and the “pH of solubility sample” value ([2]; pH 2) was “(4.3)”. For the same compound, the solubility ([2]; pH 2, aqueous buffer, thermodynamic from solid) was > 500 mg/mL, the “HPLC purity after solubility experiment” value ([2]; pH 6.9) was 99.4 % area and the “solubility” value ([2]; pH 6.9) was > 500 mg/mL. For the same compound, the solubility ([2]; pH 6.9, water, thermodynamic from solid) was > 500 mg/mL, the “HPLC purity after thermal stress” value (Thermal stress) was 99.3% and the “XRPD of solid after thermal stress” value (Thermal stress) was “consistent with the pattern of the initial KX2-391.MSA, Form A”.
